According to US20180169045A1, “AMINO ACID COMPOSITIONS AND METHODS FOR THE TREATMENT OF LIVER DISEASES” (AXCELLA HEALTH INC., priority 2016, published 2018):

What was measured:
Assay type in all cases: cell-based
[1] = tested on: Primary human PMBC derived macrophages; experiment: LPS-induced IL-6 secretion in primary human monocyte-derived macrophages (ELISA); parameters: IL-6 Measurements, Mean: unit not given here; details: for IL-6 Measurements, Mean: Donor 1, baseline subtracted values; for IL-6 Measurements Mean (baseline subtracted): LPS 0.15 ng/mL; for LPS-induced IL-6 secretion, in words: primary human monocyte-derived macrophages
Procedure: (§1) Isolation of Peripheral Blood Mononuclear Cell (PBMC) Unpurified buffy coats (Research Blood Components) were carefully poured into 50 mL centrifuge tubes and diluted with room temperature Dulbecco's Phosphate Buffered Saline (dPBS) with Calcium and Magnesium (Gibco). Diluted buffy coats were further divided into four total 50 mL centrifuge tubes at 20 mL per tube. Lymphocyte Separation Medium (Corning) was carefully pipetted to the bottom of each centrifuge tube. Mixtures were centrifuged at 850×g for 32 minutes at 20° C. with 0 deceleration and acceleration.
(§2) CD14+ cells were selected using EasySep™ Human CD14 Positive Selection Kit II ([…] Technologies). Cells were resuspended in cold EasySep™ Buffer ([…] Technologies) at 1×10^8 cells/mL. A total of 100 uL/mL EasySep™ Human CD14 Positive Selection Cocktail II was added to the cell suspension, mixed, and incubated at room temperature for 10 minutes. A total of 100 uL/mL RapidSpheres were added to the mixture and incubated at room temperature for 3 minutes after mixing, then RoboSep buffer was added to bring up the total volume to 10 mL. The mixture in a 15 mL tube was placed in magnet and incubated at room temperature for 3 minutes. Supernatant was discarded and 10 mL fresh EasySep™ buffer was added to 15 mL tube. The addition of RoboSep buffer, mixing, and discarding of supernatant was repeated two more times.
(§3) Negative and positive fractions were centrifuged at 490×g for 5 minutes at 20° C. with acceleration of 9, deceleration of 9, and resuspended in DMEM (Gibco) and 10% Heat Inactivated Fetal Bovine Serum (Atlanta Bio) and Penicillin/Streptomycin. Cells were counted and centrifuged again at 490×g for 5 minutes at 20° C. with acceleration of 9, deceleration of 9. After centrifugation, cell were resuspended in DMEM (Gibco) and 10% Heat Inactivated Fetal Bovine Serum (Atlanta Bio) and Penicillin/Streptomycin containing 500 U/mL […] and plated at 1-2×10^6 cells/mL on 10 cm tissue culture plates. Cells were kept in 37° C., 5% CO2 in between feedings/harvest.
(§4) Cells were fed every 3-4 days by removing media and unattached cells, centrifuging at 490×g for 5 minutes at 20 C with acceleration of 9, deceleration of 9, and resuspending in fresh DMEM (Gibco) and 10% Heat Inactivated Fetal Bovine Serum (Atlanta Bio) and Penicillin/Streptomycincontaining 500 U/mL GM-CSF. Resuspended cells were seeded back onto 10 cm tissue culture plates and incubated at 37° C., 5% CO2.
(§5) After complete cell attachment, culture supernatant was removed and cultures were washed 1× with 5 mL PBS. A total of 3 mL room temperature Cellstripper was added and cultures were incubated at 37° C., 5% CO2 for approximately 10 minutes until cells were rounded and beginning to detach. Cell scraper was used to completely detach cells from plate. Collected cell were spun down at 490 g for 5 min at room temperature and resuspended in 10% DMSO in Heat Inactivated Fetal Bovine Serum and immediately frozen in −80 C.
(§6) Primary human PMBC derived macrophages were seeded on day 0 at 3.0E4 cells per well in 96-well microplates (ThermoFisher) in Dulbecco's Modified Eagle Medium (DMEM) (Gibco) supplemented with penicillin-streptomycin (Hyclone) and 10% heat inactivated fetal bovine serum (HI-FBS) (Atlanta Bio) and incubated overnight at 37° C., 5% CO2. On day 1, cells were washed once with 150 uL per well DPBS (Gibco) and treated with 75 uL of: • a. Amino acid free DMEM (US Biologicals) containing a defined custom amino acid concentration based on the mean physiological concentrations in blood based on values published in the Human Metabolome Database (HMDB), with 6 mM glucose, 1 mM sodium pyruvate, 10 mM HEPES, 0.2% primocin (InVivoGen); or • b. The same medium described above with one amino acid at various concentrations including complete dropout. […]

[2] = tested on: Primary human PMBC derived macrophages; experiment: LPS-induced TNFa secretion in primary human monocyte-derived macrophages (ELISA); parameters: TNFa Measurements Mean (baseline subtracted): unit not given beside the values; details: for TNFa Measurements Mean (baseline subtracted): Donor 1, LPS 0.15 ng/mL; for LPS-induced TNFa secretion, in words: primary human monocyte-derived macrophages
Procedure: as §1, §2, §3, §4, §5, §6

[3] = tested on: Primary human hepatic stellate cells; experiment: TNFα-induced IL-6 secretion in primary human hepatic stellate cells (ELISA); details: for IL-6 cytokine secretion, in words: primary human hepatic stellate cells from two donors, 3 ng/mL TNFα, 12 h
Procedure: Primary human hepatic stellate cells were obtained from Samsara Sciences based on the following criteria for selecting donors: adult age (between 18 and 50 years), normal BMI (>18.5 and <25), and absence of confounding liver disease. Primary human hepatic stellate cells grown in Complete HSC Medium to ˜80% confluence in T75 or T150 flasks below passage 10 were seeded into sterile, collagen I coated, 96-well optical plastic microplates (ThermoScientific, 152036) at 4000 cells per well ([…]) and incubated for 6 hours at 37° C., 5% CO2 in a humidified incubator.
After 6 hours, plates were removed from the incubator and the medium gently pipetted off and washed once with 150 μL per well DPBS. The DPBS was removed and the pretreatment medium (±single amino acid dropout, 1×HMDB DMEM+3% dialyzed FBS+0.2% Primocin, ±supplemental amino acid dose; see experiment for medium composition) was applied to the cells at 150 μL per well. Plates were returned to the incubator overnight, ˜14-15 hours.
After overnight pretreatment, the medium was removed from the cells, and the same pretreatment medium, now supplemented with 3 ng/mL TNFα is applied. Each plate contained 3 ng/mL TNFα in 1× human plasma amino acid (HMDB or PAA) concentration medium, 0 ng/mL in 1×HMDB, and 3 ng/mL TNFα+50 nM Bengamide in 1×HMDB to serve as controls. Plates were incubated for 12 hours at 37° C., 5% CO2.
After 12 hour stimulus with TNFα, supernatant was removed and frozen at −80° C. in two separate aliquots. Plates were washed gently once with DPBS and 100 μL per well of 1×HMDB DMEM+3% dialyzed FBS+0.2% Primocin+10% CCK-8 viability reagent (Dojindo). Plates were incubated for 1 hour at 37° C., 5% CO2.
After 1 hour of incubation, viability was measured on the Synergy plate reader (Absorbance at 977 (test), 900 (reference), and 450 (CCK8) nm). Immediately, the medium was removed and the plates were fixed with 70 μL per well 4% paraformaldehyde in PBS at room temperature for 20 minutes, followed by two 150 μL PBS washes, and stored with 100 μL per well PBS at 4° C. until immunofluorescence staining.
Human CCL2/MCP1 and Human IL-6 were measured by ELISA (Human […] DuoSet ELISA, R&D Systems; Human IL-6 DuoSet ELISA, R&D Systems) at 1/5 and 1/20 dilution in 1× Reagent Diluent (Reagent Ancillary Kit 2, R&D Systems). Data were normalized to the specific per well cell density determined by Hoechst stained nuclei count.

CC(=O)N[C@@H](CS)C(=O)O [N-acetylcysteine]
IL-6 Measurements, Mean ([1]; Conc. 5 X): 308.1772 | IL-6 Measurements, Mean ([1]; Conc. 10 X): −121.142 | IL-6 Measurements, Mean ([1]; Conc. 20 X): −553.802 | IL-6 Measurements, Mean ([1]; Conc. 40 X): −914.194 | IL-6 Measurements Mean (baseline subtracted) ([1]; Donor 2, Conc. 0 X (baseline)): −2.4E−15 | IL-6 Measurements Mean (baseline subtracted) ([1]; Donor 2, Conc. 20 X): −24.9999 | IL-6 Measurements Mean (baseline subtracted) ([1]; Donor 3, Conc. 0 X (baseline)): −9.5E−15 | IL-6 Measurements Mean (baseline subtracted) ([1]; Donor 3, Conc. 5 X): −70.3269 | IL-6 Measurements Mean (baseline subtracted) ([1]; Donor 3, Conc. 10 X): −103.586 | IL-6 Measurements Mean (baseline subtracted) ([1]; Donor 3, Conc. 20 X): −122.656 | IL-6 Measurements Mean (baseline subtracted) ([1]; Donor 3, Conc. 40 X): −140.851 | LPS-induced IL-6 secretion, in words ([1]; Donor 1, 0.15 ng/mL LPS): significantly reduced | LPS-induced IL-6 secretion, in words ([1]; Donor 2, 0.15 ng/mL LPS): significantly reduced | LPS-induced IL-6 secretion, in words ([1]; Donor 3, 0.15 ng/mL LPS): significantly reduced | TNFa Measurements Mean (baseline subtracted) ([2]; Conc. 0 X (baseline)): 0 | LPS-induced TNFa secretion, in words ([2]; Donor 1, 0.15 ng/mL LPS): significantly reduced | LPS-induced TNFa secretion, in words ([2]; Donor 2, 0.15 ng/mL LPS): significantly reduced | LPS-induced TNFa secretion, in words ([2]; Donor 3, 0.15 ng/mL LPS): significantly reduced | Fold Change IL-6 Secretion Normalized Per Cell, Mean ([3]; donor 1, Conc. 1000 μM): 0.7141 | Fold Change IL-6 Secretion Normalized Per Cell, Mean ([3]; donor 1, Conc. 2500 μM): 0.7354 | Fold Change IL-6 Secretion Normalized Per Cell, Mean ([3]; donor 1, Conc. 5000 μM): 0.6121 | Fold Change IL-6 Secretion Normalized Per Cell, Mean ([3]; donor 1, Conc. 10000 μM): 0.5716 | Fold Change IL-6 Secretion Normalized Per Cell, Mean ([3]; donor 1, Conc. 5 X): 0.7141 | Fold Change IL-6 Secretion Normalized Per Cell, Mean ([3]; donor 1, Conc. 10 X): 0.7354 | Fold Change IL-6 Secretion Normalized Per Cell, Mean ([3]; donor 1, Conc. 20 X): 0.6121 | Fold Change IL-6 Secretion Normalized Per Cell, Mean ([3]; donor 1, Conc. 40 X): 0.5716 | Fold Change IL-6 Secretion Normalized Per Cell, Mean ([3]; donor 2, Conc. 1000 μM): 0.9161 | Fold Change IL-6 Secretion Normalized Per Cell, Mean ([3]; donor 2, Conc. 2500 μM): 0.9180 | Fold Change IL-6 Secretion Normalized Per Cell, Mean ([3]; donor 2, Conc. 5000 μM): 0.8111 | Fold Change IL-6 Secretion Normalized Per Cell, Mean ([3]; donor 2, Conc. 10000 μM): 0.7064 | Fold Change IL-6 Secretion Normalized Per Cell, Mean ([3]; donor 2, Conc. 5 X): 0.9161 | Fold Change IL-6 Secretion Normalized Per Cell, Mean ([3]; donor 2, Conc. 10 X): 0.9180 | Fold Change IL-6 Secretion Normalized Per Cell, Mean ([3]; donor 2, Conc. 20 X): 0.8111 | Fold Change IL-6 Secretion Normalized Per Cell, Mean ([3]; donor 2, Conc. 40 X): 0.7064 | IL-6 cytokine secretion, in words [3]: reduced IL-6 secretion in both donors but was only statistically significant in one of two donors

CC(C)[C@H](N)C(=O)O [Valine, L-Valine]
IL-6 Measurements, Mean ([1]; Conc. 4684 μM): −85.9843 | IL-6 Measurements, Mean ([1]; Conc. 11710 μM): −97.25 | IL-6 Measurements, Mean ([1]; Conc. 23420 μM): −106.268 | IL-6 Measurements Mean (baseline subtracted) ([1]; Donor 3, Conc. 234 μM (baseline)): 4.26E−14 | IL-6 Measurements Mean (baseline subtracted) ([1]; Donor 3, Conc. 4684 μM): −30.0609 | IL-6 Measurements Mean (baseline subtracted) ([1]; Donor 3, Conc. 11710 μM): −43.8022 | IL-6 Measurements Mean (baseline subtracted) ([1]; Donor 3, Conc. 23420 μM): −29.2004 | TNFa Measurements Mean (baseline subtracted) ([2]; Conc. 234 μM (baseline)): 0 | Fold Change IL-6 Secretion Normalized Per Cell, Mean ([3]; donor 1, Conc. 4684 μM): 0.9790 | Fold Change IL-6 Secretion Normalized Per Cell, Mean ([3]; donor 1, Conc. 11710 μM): 0.9562 | Fold Change IL-6 Secretion Normalized Per Cell, Mean ([3]; donor 1, Conc. 23420 μM): 1.0404 | Fold Change IL-6 Secretion Normalized Per Cell, Mean ([3]; donor 2, Conc. 4684 μM): 1.0383 | Fold Change IL-6 Secretion Normalized Per Cell, Mean ([3]; donor 2, Conc. 11710 μM): 0.9218 | Fold Change IL-6 Secretion Normalized Per Cell, Mean ([3]; donor 2, Conc. 23420 μM): 0.9015 | IL-6 cytokine secretion, in words [3]: no significant effect
